Source: patent US7531187B2, “Synergistic insecticidal composition containing chloronicotynyle and pyrethroids compounds” (United Phosphorus, Ltd., priority 2004, dated 2009)
Where two headings read alike, the source gives them in different places.

Key:
chicken = settings: cis/trans ratio of 40:60; cited from earlier work
[1] = cited from earlier work; for pH of optimum stability: more stable in acid than in alkaline media
[2] = cited from earlier work
flies = settings: cited from earlier work
mice = settings: cited from earlier work
rats [3] = settings: cited from earlier work
[4] = tested on: cockroaches and other crawling insets; settings: 100 mg a.i. (as WP)/m^2; cited from earlier work
Japanese quail = settings: cis/trans ratio of 40:60; cited from earlier work
[5] = tested on: Brown plant hoppers and Green plant hoppers; test: Treated paddy leaf bioassay, larval mortality, Colby synergism (Examples 13-14); assay type: in vivo
Method: In this evaluation, Brown plant hoppers and Green plant hoppers are obtained from laboratory colonies. Paddy leaves are immersed in 1:1 v/v, acetone/water solutions of the test compound, or solution of a combination of the test compounds for a period of about 4 seconds. Following immersion, leaves are allowed to air-dry for 2-3 hours. Plastic bioassay trays containing multiple open-faced wells (4.0×4.0×2.5 cm) are used. Cut portions of a treated leaf, a moistened cotton dental wick and a single third-instar larva are placed into each well. These wells are covered with an adhesive vented clear plastic sheet which is held under constant fluorescent light at about 30° C. for a predetermined period of time. Larval mortality/morbidity is evaluated at 5 days after treatment. All treatments are replicated 3-4 fold in a randomized complete block design with 15-30 larvae per treatment. Using conventional log-probit analysis, the LC50 of each treatment is determined.
Synergism can be calculated by using the Colby's method i.e. the expected (or predicted) response of the combination is calculated by taking the product of the observed response for each individual component of the combination when applied alone divided by 100 and subtracting this value from the sum of observed response for each component when applied alone. Synergism of the combination is then determined by comparing the observed response of the combination to the expected (or predicted) response as calculated from the observed response of each individual component alone. If the observed response of the combination is greater than the expected (or predicted) response, then the combination is said to be synergistic and falls within the definition of synergistic effect. (Colby, S. R., Weeds, 1967(15), p. 20-22)

rats [6] = settings: cited from earlier work; remark: listed apart in the source
rabbits = settings: cited from earlier work
rats [7] = settings: cited from earlier work; remark: listed apart in the source
[8] = cited from earlier work; remark: listed apart in the source
domestic fowl = settings: cited from earlier work
[9] = in vivo; cited from earlier work

CC1(C)C(C=C(Cl)Cl)C1C(=O)OCc1cccc(Oc2ccccc2)c1 (stereo not drawn) [Permethrin, 3-phenoxybenzyl(1RS,3 RS; 1 RS, 3SR)-3-(2,2-dichlorovinyl)-2,2-dimethylcyclopropanecarboxylate]
Typical oral LD50 (chicken): > 300 mg/kg
stability to heat ([1]; 50° C.): ≥ 2 years
photochemical stability, in words ([1]; laboratory studies): Some photochemical degradation
pH of optimum stability [1]: 4
Solubility in Xylene ([2]; 25° C.): ≥ 1 kg/kg
Solubility in hexane ([2]; 25° C.): > 1 kg/kg
Solubility in methanol ([2]; 25° C.): 258 g/kg
duration of residual control of biting flies in animal housing (flies; 200 mg a.i. (as EC)/square meter wall or 30 mg a.i. (as WP)/m^2 wall): < 60 days
Typical oral LD50 (mice; mice, cis/trans ratio of 40:60): 540 to 2690 mg/kg
Typical oral LD50 (rats [3]; rats, cis/trans ratio of 40:60): 430 to 4000 mg/kg
duration of control of cockroaches and other crawling insets [4]: > 120 days
Typical oral LD50 (Japanese quail): > 13500 mg/kg

CC1(C)C(C=C(Cl)Cl)C1C(=O)OC(C#N)c1cccc(Oc2ccccc2)c1 (racemic) [Cypermethrin, (RS)-α-cyano-3-phenoxybenzyl (1RS, 3RS; IRS, 3SR)-3-(2,2-dichlorovinyl)-2,2-dimethyl cyclopropane carboxylate]
Observed Mortality % ([5]; Table 2, Cypermethrin 80 ppm alone): 52.5%
Observed Mortality % ([5]; Table 2, Cypermethrin 85 ppm alone): 60%
Observed Mortality % ([5]; Table 2, Cypermethrin 90 ppm alone): 70%
Observed Mortality % ([5]; Table 3, Cypermethrin 80 ppm alone): 60.0%
Observed Mortality % ([5]; Table 3, Cypermethrin 85 ppm alone): 65%
Observed Mortality % ([5]; Table 3, Cypermethrin 90 ppm alone): 72.0%

(E)-N′-[(6-chloro-3-pyridyl)methyl]-N-cyano-N-methylacetamidine [Acetamiprid]
stability in buffered solutions ([1]; pH 4,5,7): Stable
stability in buffered solutions ([1]; pH 9 and 45° C.): Degraded slowly
stability under sunlight ([1]; sunlight): Stable
solubility in organic solvents, in words ([2]; acetone, methanol, ethanol, dichloromethane, chloroform, acetonitrile and tetrahydrofuron): Soluble
inhalation LC50 (4 h) (rats [6]; male and female rats): > 0.29 mg/L
Observed Mortality % ([5]; Table 3, Acetamiprid 24 ppm alone): 47.30%
Observed Mortality % ([5]; Table 3, Acetamiprid 27 ppm alone): 69.25%
Observed Mortality % ([5]; Table 3, Acetamiprid 30 ppm alone): 72.1%
irritation to skin and eyes (rabbits; rabbits): Non irritating
acute oral LD50 (mice; female mice): 184 mg/kg
acute oral LD50 (mice; male mice): 198 mg/kg
Acute percutaneous LD50 (rats [7]; male and female rats): > 2000 mg/kg
acute oral LD50 (rats [3]; female rats): 146 mg/kg
acute oral LD50 (rats [3]; male rats): 217 mg/kg
solubility in water ([8]; 25° C.): 4.2 mg/mL

CC(C)[C@@H](C(=O)O[C@@H](C#N)c1cccc(Oc2ccccc2)c1)c1ccc(Cl)cc1 (racemic) [Fenvalerate, (RS)-α-cyano-3-phenoxybenzyl (RS)-2-(4-chlorophenyl)-3-methylbutyrate]
pH of optimum stability [1]: 4
Solubility in acetone, chloroform, cyclohexanone, ethanol, xylene ([2]; 23° C.): > 1 kg/kg
Solubility in hexane ([2]; 23° C.): 155 g/kg
duration of control of flies in cattle sheds (flies; 110 mg/aquare meter wall): 60 days
Acute percutaneous LD50 (rats [7]; rats): > 5000 mg/kg
acute oral LD50 (rats [3]; rats): 451 mg/kg
acute oral LD50 (domestic fowl): > 1600 mg/kg
solubility in water ([8]; 20° C.): < 0.001 mg/mL

O=[N+]([O-])NC1=NCCN1Cc1ccc(Cl)nc1 [Imidacloprid, 1-(6-chloro-3-pyridylmethyl)-N-nitroimidazolidin-2-yldeneamine]
stability to hydrolysis ([1]; pH 5): Stable
solubility in n.hexane ([2]; 20° C.): < 0.1 mg/mL
skin sensitisation [9]: Not a skin sensitiser
inhalation LC50 (4 h) (rats [6]; female rats, aerosol): > 5323 mg/m^3 air
Observed Mortality % ([5]; Table 2, Imidacloprid 24 ppm alone, 5 days after treatment): 55.00%
Observed Mortality % ([5]; Table 2, Imidacloprid 27 ppm alone): 69.25%
Observed Mortality % ([5]; Table 2, Imidacloprid 30 ppm alone): 72.10%
irritation to skin and eyes (rabbits; rabbit, in vivo): Non irritating
Acute percutaneous LD50 (24 h) (rats [7]; rats, 24 h): > 5000 mg/kg
